Cytotoxicity data for 39 compounds are collected here from ChEMBL document CHEMBL3507680, “University of Dundee, Gates Library screen for HepG2 cell viability”.

The nature of the data set: Human HepG2 cell viability assay in 384 well format. It is filed as toxicity, cell-based. Also on record: dose 125 nL, time 70.5 hour; concentration not given beside the values. To be noted: HepG2 cells, read-out: Inhibition.
As for `CC(C)Cc1cc(C(=O)NCC2CCCN(c3ccccn3)C2)on1` (centres undefined), the cytotoxicity at 70.5 h came out at 9.21%.

Take `CSCC[C@@H](CO)n1ccnc1-c1ccc(C)o1`: the cytotoxicity at 70.5 h turned out to be 0.0887%. In the case of `O=C1CCC(C(=O)N2CCOC(Cc3ccc(F)cc3)C2)=NN1` (centres undefined), the cytotoxicity at 70.5 h was -11.8%.

For `Cc1nn(C)c2nc(N3CCCCC3c3cccnc3)sc12` (centres undefined), the cytotoxicity at 70.5 h was -4.09%. `CN(CCO)Cc1nnc(C2CCN(C[C@H]3[C@@H]4CNC[C@@H]43)CC2)n1C`: the cytotoxicity at 70.5 h amounted to 9.78%.

`CCOC(=O)CCCNc1nc(C(C)(C)C)nc2c1cnn2C`: the cytotoxicity at 70.5 h was -3.02%. The result for `COc1ccc(N2CCN(Cc3nc(CSC)no3)CC2=O)cc1` reads 4.47%; that for `CCn1ncnc1CN1CCC(CNC(=O)c2cccnc2O)C1` (centres undefined), -4.94%; that for `Cc1cc(N(C)Cc2c(C)noc2C)n2nc(C)c(C)c2n1`, 3.35%. The figure for `Cc1ccc(N2CCC(c3[nH]ncc3Cc3ccccc3)CC2)nn1` is -10%; for `O=C(C(c1ccc(F)cc1)N1CCCCC1)N1CCn2cncc2C1` (centres undefined) it is -1.97%. The figure for `CCc1cc(NCCN2CCNC2=O)n2nc(C)c(C)c2n1` is -11.4%; for `Cc1cc2n(n1)CCN(c1nc(N(C)C)nc3c1CCNC3)C2` it is 14.4%. For `CCCc1cc(N2CCC(N[C@H]3CC[C@H](O)CC3)CC2)nc(C)n1`, the cytotoxicity at 70.5 h was -4.54%. As to `CCN(CC)C(=O)[C@@H]1C[C@H](NC(=O)c2ccn(C(C)(C)C)c2)CN1C`, the cytotoxicity at 70.5 h was -1.68%.

Regarding `OCC1CCCCN1CCn1ccnc1-c1nc2ccccc2[nH]1` (centres undefined), the cytotoxicity at 70.5 h was -2.11%. With `CCc1ccccc1OCCN1CCC(NS(C)(=O)=O)CC1`, the cytotoxicity at 70.5 h is 3.87%. For the compound `CSCCc1nc(-c2ccc3c(c2)OCO3)n(C)n1`, the cytotoxicity at 70.5 h is -4.21%.

Turning to `Cc1ccc2[nH]c(CNC(=O)C3CC4(CCNCC4)CN3C)nc2c1C` (centres undefined), the cytotoxicity at 70.5 h was 50.4%. For `OC[C@@H]1CCCN1Cc1cn(C2CCN(C3CCCC3)CC2)nn1`, the cytotoxicity at 70.5 h was -4.14%. Turning to `Cn1cccc1-c1cc(C(=O)N2CCCCC2c2ccc(F)cc2)[nH]n1` (centres undefined), the cytotoxicity at 70.5 h is -3.93%. The result for `CC(=O)N[C@@H]1CN(C(=O)c2ccoc2)C[C@H]1c1ccc(C)cc1` reads -13.3%; that for `CS(=O)(=O)NC1CCN(CCOCc2ccccc2)CC1`, -6.45%. In the case of `Cc1ccc(-c2ncc(C(=O)N3CCN4CCCCC4C3)c(O)n2)cc1` (centres undefined), the cytotoxicity at 70.5 h is -4.08%.

Take `O=C(NCc1nc(C2CCCCC2)no1)C1CC(=O)N(C2CC2)C1` (centres undefined): the cytotoxicity at 70.5 h is 5.86%. The result for `Cc1ccc(NC2(C(=O)NC(C)c3ncn[nH]3)CCCC2)cc1` (centres undefined) reads 6.6%; that for `Cc1ccccc1CC(=O)N1C[C@H]2CC[C@@H]1CN(Cc1cccnc1)C2`, -4.12%; that for `CCc1ncc(CN2CCC(CCc3ccccc3)CC2)cn1`, 20.8%.

With `CCOc1ccc(CN(CCOC)C(=O)c2ccncc2Cl)cc1`, the cytotoxicity at 70.5 h was -3.6%. The result for `Cc1nc(N2CCCC2C(=O)NCc2ccsc2)nc2ccccc12` (centres undefined) reads -6.09%; that for `Cn1c(CN2CC[C@](C)(O)C(C)(C)C2)cc2ccccc21`, -5.32%; that for `O=C(c1c[nH]cn1)N1CCC(n2cc(-c3ccsc3)nn2)CC1`, 18%. The figure for `CCCc1nc(CN(CC)Cc2ccc(S(C)(=O)=O)cc2)no1` is 10.1%; for `Cn1c(-c2ccccc2Cl)nc2cc(C(=O)NCCS(C)(=O)=O)cnc21` it is -7.15%; for `CN(CCC(O)c1ccccc1)c1cc(C2CC2)ncn1` (centres undefined) it is -6.59%.

For the compound `CO[C@H]1CN(C(C)C)C[C@@H]1NC(=O)Nc1ccc(C(F)(F)F)cc1`, the cytotoxicity at 70.5 h is -5.18%.

As to `CCNC(=O)C1CCN(Cc2ccc(C(=O)Nc3cnns3)cc2)C1` (centres undefined), the cytotoxicity at 70.5 h turned out to be 1.67%. With `Cc1ccccc1C(CNc1ncnc2c1CCNC2)N(C)C` (centres undefined), the cytotoxicity at 70.5 h is -7.27%. As to `Cc1ccnc(N2CCN(C3CCS(=O)(=O)C3)CC2)n1` (centres undefined), the cytotoxicity at 70.5 h is -13.6%.
